Test results taken from patent US7435721B2, “Transport peptides such as C-terminal Erns peptide and analogues thereof” (Pepscan Systems B.V., priority 2000, dated 2008).
*: point of attachment. Biotin = O=C1N[C@H]2[C@H](CS[C@H]2CCCCC(=O)*)N1

The substances below were run on live cells in suspension or subconfluent monolayers.
Type: cell-based
In the case of Biotin-KCPSRRPKR-NH2 [Alpha virus E3], the “Concentration (translocation activity of transport peptides)” value was 3.0 µM. In the case of Biotin-KGRTPIKFGKADCDRPPKHSQNGMGK-NH2, the “Concentration (translocation activity), mapping of restrictocin L3 loop” value (from here on “Concentration (translocation activity)”) was 3.0 µM. Biotin-KKPGKKTTTKPTKK-NH2 [MDS-23] was tested, and the “Concentration (translocation activity of transport peptides)” value was 0.3 µM. In the case of “Biotin-KKPGKKTTTKPTKKPTIKTTKK-NH2 [MDS-09]”, the “Concentration (translocation activity of transport peptides)” value was 0.3 µM. For Biotin-KKPTIKTTKK-NH2 [MDS-37], the “Concentration (translocation activity of transport peptides)” value was 0.3 µM. With Biotin-KLIKGRTPIKFGKADCDRPPKHSGK-NH2 the “Concentration (translocation activity)” value was 0.3 µM. With Biotin-KLIKGRTPIKFGKADCDRPPKHSQNGK-NH2 the “Concentration (translocation activity)” value was 0.3 µM. “Biotin-KLIKGRTPIKFGKADCDRPPKHSQNGMGK-NH2” was tested, and the “Concentration (translocation activity)” value was 0.3 µM. Biotin-KLIKGRTPIKFGKARCRRPPKHSGK-NH2 was tested, and the “Concentration (translocation activity)” value was 0.3 µM. In the case of Biotin-KRIPNKKPGKK-NH2 [MDS-34], the “Concentration (translocation activity of transport peptides)” value was 0.03 µM. Biotin-KRIPNKKPGKKT-NH2 [MDP-32] was tested, and the “Concentration (translocation activity of transport peptides)” value was 0.03 µM.
